Test results: ChEMBL document CHEMBL3132854, “Synthesis and anticancer activity evaluation of resveratrolchalcone conjugates” (2014)

Assays:
Format in all cases: functional
[1] = system: COLO 205; test: Cytotoxicity against human COLO205 cells by sulforhodamine B assay
[2] = system: MDA-MB-435; test: Cytotoxicity against human MDA-MB-435 cells by sulforhodamine B assay
[3] = system: NCI-H23; test: Cytotoxicity against human NCI-H23 cells by sulforhodamine B assay
[4] = system: SK-OV-3; test: Cytotoxicity against human SKOV3 cells by sulforhodamine B assay
[5] = Cytotoxicity against human NCI-ADR-RES cells by sulforhodamine B assay
[6] = system: LOX IMVI; test: Cytotoxicity against human LOXIMVI cells by sulforhodamine B assay
[7] = Cytotoxicity against human OVCAR5 cells by sulforhodamine B assay
[8] = system: HT-29; test: Cytotoxicity against human HT-29 cells by sulforhodamine B assay
[9] = system: RPMI-8226; test: Cytotoxicity against human RPMI8226 cells by sulforhodamine B assay
[10] = system: OVCAR-3; test: Cytotoxicity against human OVCAR3 cells by sulforhodamine B assay
[11] = system: NCI-H522; test: Cytotoxicity against human NCI-H522 cells by sulforhodamine B assay
[12] = system: K562; test: Cytotoxicity against human K562 cells by sulforhodamine B assay
[13] = system: RXF 393; test: Cytotoxicity against human RXF393 cells by sulforhodamine B assay
[14] = system: Malme-3M; test: Cytotoxicity against human MALME-3M cells by sulforhodamine B assay
[15] = system: SNB-19; test: Cytotoxicity against human SNB19 cells by sulforhodamine B assay
[16] = system: HL-60(TB); test: Cytotoxicity against human HL-60(TB) cells by sulforhodamine B assay
[17] = system: A549; test: Cytotoxicity against human A549/ATCC cells by sulforhodamine B assay
[18] = system: SF-295; test: Cytotoxicity against human SF295 cells by sulforhodamine B assay
[19] = system: SF-268; test: Cytotoxicity against human SF268 cells by sulforhodamine B assay
[20] = system: M14; test: Cytotoxicity against human M14 cells by sulforhodamine B assay
[21] = system: 786-0; test: Cytotoxicity against human 786-0 cells by sulforhodamine B assay
[22] = Cytotoxicity against human UACC257 cells by sulforhodamine B assay
[23] = system: MDA-MB-468; test: Cytotoxicity against human MDA-MB-468 cells by sulforhodamine B assay
[24] = system: SK-MEL-5; test: Cytotoxicity against human SK-MEL-5 cells by sulforhodamine B assay
[25] = system: MDA-MB-231; test: Cytotoxicity against human MDA-MB-231 cells by sulforhodamine B assay
[26] = system: OVCAR-8; test: Cytotoxicity against human OVCAR8 cells by sulforhodamine B assay
[27] = system: SR; test: Cytotoxicity against human SR cells by sulforhodamine B assay
[28] = system: HCT-15; test: Cytotoxicity against human HCT15 cells by sulforhodamine B assay
[29] = system: NCI-H460; test: Cytotoxicity against human NCI-H460 cells by sulforhodamine B assay
[30] = system: SW-620; test: Cytotoxicity against human SW620 cells by sulforhodamine B assay
[31] = system: DU-145; test: Cytotoxicity against human DU145 cells by sulforhodamine B assay
[32] = system: UACC-62; test: Cytotoxicity against human UACC62 cells by sulforhodamine B assay
[33] = system: SK-MEL-2; test: Cytotoxicity against human SK-MEL-2 cells by sulforhodamine B assay
[34] = system: NCI-H226; test: Cytotoxicity against human NCI-H226 cells by sulforhodamine B assay
[35] = system: ACHN; test: Cytotoxicity against human ACHN cells by sulforhodamine B assay
[36] = system: KM12; test: Cytotoxicity against human KM12 cells by sulforhodamine B assay
[37] = system: A498; test: Cytotoxicity against human A498 cells by sulforhodamine B assay
[38] = system: SK-MEL-28; test: Cytotoxicity against human SK-MEL-28 cells by sulforhodamine B assay
[39] = system: HCC 2998; test: Cytotoxicity against human HCC2998 cells by sulforhodamine B assay
[40] = read-out: LC50 (the source's name)

Which GI50 [1] does the source give for `COc1ccc(C(=O)/C=C/c2ccc(/C=C/c3cc(OC)c(OC)c(OC)c3)cc2)cc1` here?
The GI50 was 13.7 µM.

And the TGI [1]?
Its TGI is > 100 µM.

And the CC50 [1, 40]?
Its CC50 is > 100 µM.

What about the GI50 [2] of the same compound?
The GI50 was 4.28 µM.

And the TGI [2]?
Its TGI is 47.7 µM.

And the CC50 [2, 40]?
Its CC50 is > 100 µM.

What about the GI50 [3] of the same compound?
The GI50 was 5.39 µM.

And the TGI [3]?
Its TGI is 65.9 µM.

And the CC50 [3, 40]?
The CC50 was > 100 µM.

What about the GI50 [4] of the same compound?
Its GI50 is 15.6 µM.

What about the TGI [4] of the same compound?
The TGI was 64.5 µM.

What about the CC50 [4, 40] of the same compound?
Its CC50 is > 100 µM.

And the GI50 [5]?
The GI50 was 5.46 µM.

What about the TGI [5] of the same compound?
The TGI was > 100 µM.

And the CC50 [5, 40]?
Its CC50 is > 100 µM.

And the GI50 [6]?
The GI50 was 3.76 µM.

And the TGI [6]?
The TGI was 60.9 µM.

What about the CC50 [6, 40] of the same compound?
Its CC50 is > 100 µM.

And the GI50 ([7]; OVCAR-5)?
The GI50 was 34.1 µM.

And the TGI ([7]; OVCAR-5)?
Its TGI is > 100 µM.

And the CC50 ([7]; OVCAR-5, read-out: LC50 (the source's name))?
Its CC50 is > 100 µM.

And the GI50 [8]?
Its GI50 is 4.17 µM.

What about the TGI [8] of the same compound?
The TGI was > 100 µM.

What about the CC50 [8, 40] of the same compound?
Its CC50 is > 100 µM.

And the GI50 [9]?
The GI50 was 2.57 µM.

And the TGI [9]?
The TGI was 8.54 µM.

What about the CC50 [9, 40] of the same compound?
Its CC50 is > 100 µM.

What about the GI50 [10] of the same compound?
Its GI50 is 3.92 µM.

What about the TGI [10] of the same compound?
The TGI was 14.3 µM.

What about the CC50 [10, 40] of the same compound?
The CC50 was 74.4 µM.

And the GI50 [11]?
The GI50 was 3.3 µM.

What about the TGI [11] of the same compound?
The TGI was 30.7 µM.

What about the CC50 [11, 40] of the same compound?
The CC50 was > 100 µM.

What about the GI50 [12] of the same compound?
Its GI50 is 3.03 µM.

What about the TGI [12] of the same compound?
Its TGI is > 100 µM.

And the CC50 [12, 40]?
The CC50 was > 100 µM.

And the GI50 [13]?
Its GI50 is 8.01 µM.

What about the TGI [13] of the same compound?
The TGI was 43.6 µM.

What about the CC50 [13, 40] of the same compound?
Its CC50 is > 100 µM.

And the GI50 [14]?
The GI50 was 13.2 µM.

What about the TGI [14] of the same compound?
Its TGI is > 100 µM.

What about the CC50 [14, 40] of the same compound?
The CC50 was > 100 µM.

And the GI50 [15]?
Its GI50 is 21.1 µM.

What about the TGI [15] of the same compound?
The TGI was > 100 µM.

What about the CC50 [15, 40] of the same compound?
The CC50 was > 100 µM.

What about the GI50 [16] of the same compound?
Its GI50 is 4.49 µM.

What about the TGI [16] of the same compound?
Its TGI is > 100 µM.

What about the CC50 [16, 40] of the same compound?
Its CC50 is > 100 µM.

What about the GI50 [17] of the same compound?
Its GI50 is 4.67 µM.

What about the TGI [17] of the same compound?
The TGI was 80.9 µM.

And the CC50 [17, 40]?
Its CC50 is > 100 µM.

What about the GI50 [18] of the same compound?
The GI50 was 9.01 µM.

And the TGI [18]?
Its TGI is > 100 µM.

What about the CC50 [18, 40] of the same compound?
Its CC50 is > 100 µM.

And the GI50 [19]?
Its GI50 is 6.08 µM.

What about the TGI [19] of the same compound?
The TGI was 88.3 µM.

And the CC50 [19, 40]?
Its CC50 is > 100 µM.

What about the GI50 [20] of the same compound?
The GI50 was 9.61 µM.

And the TGI [20]?
Its TGI is > 100 µM.

And the CC50 [20, 40]?
Its CC50 is > 100 µM.

What about the GI50 [21] of the same compound?
Its GI50 is 10.4 µM.

What about the TGI [21] of the same compound?
The TGI was 71.1 µM.

What about the CC50 [21, 40] of the same compound?
The CC50 was > 100 µM.

What about the GI50 ([22]; UACC-257) of the same compound?
Its GI50 is 9 µM.

What about the TGI ([22]; UACC-257) of the same compound?
The TGI was > 100 µM.

And the CC50 ([22]; UACC-257, read-out: LC50 (the source's name))?
The CC50 was > 100 µM.

And the GI50 [23]?
The GI50 was 3.39 µM.

What about the TGI [23] of the same compound?
The TGI was 48.7 µM.

What about the CC50 [23, 40] of the same compound?
The CC50 was > 100 µM.

What about the GI50 [24] of the same compound?
The GI50 was 3.39 µM.

And the TGI [24]?
Its TGI is 19.2 µM.

What about the CC50 [24, 40] of the same compound?
The CC50 was > 100 µM.

What about the GI50 [25] of the same compound?
The GI50 was 10.2 µM.

And the TGI [25]?
The TGI was > 100 µM.

What about the CC50 [25, 40] of the same compound?
Its CC50 is > 100 µM.

And the GI50 [26]?
The GI50 was 3.76 µM.

And the TGI [26]?
The TGI was 61.1 µM.

What about the CC50 [26, 40] of the same compound?
Its CC50 is > 100 µM.

What about the GI50 [27] of the same compound?
The GI50 was 1.98 µM.

What about the TGI [27] of the same compound?
Its TGI is > 100 µM.

And the CC50 [27, 40]?
Its CC50 is > 100 µM.

And the GI50 [28]?
Its GI50 is 2.42 µM.

And the TGI [28]?
Its TGI is > 100 µM.

And the CC50 [28, 40]?
Its CC50 is > 100 µM.

What about the GI50 [29] of the same compound?
The GI50 was 8.65 µM.

And the TGI [29]?
Its TGI is > 100 µM.

What about the CC50 [29, 40] of the same compound?
Its CC50 is > 100 µM.

What about the GI50 [30] of the same compound?
The GI50 was 4.5 µM.

And the TGI [30]?
Its TGI is > 100 µM.

And the CC50 [30, 40]?
The CC50 was > 100 µM.

And the GI50 [31]?
The GI50 was 10.2 µM.

And the TGI [31]?
The TGI was > 100 µM.

And the CC50 [31, 40]?
The CC50 was > 100 µM.

What about the GI50 [32] of the same compound?
Its GI50 is 7.13 µM.

And the TGI [32]?
The TGI was > 100 µM.

What about the CC50 [32, 40] of the same compound?
Its CC50 is > 100 µM.

What about the GI50 [33] of the same compound?
Its GI50 is 1.89 µM.

What about the TGI [33] of the same compound?
The TGI was > 100 µM.

And the CC50 [33, 40]?
The CC50 was > 100 µM.

And the GI50 [34]?
Its GI50 is 3.57 µM.

What about the TGI [34] of the same compound?
Its TGI is 22.8 µM.

What about the CC50 [34, 40] of the same compound?
Its CC50 is > 100 µM.

And the GI50 [35]?
The GI50 was 11.6 µM.

And the TGI [35]?
The TGI was > 100 µM.

What about the CC50 [35, 40] of the same compound?
Its CC50 is > 100 µM.

And the GI50 [36]?
The GI50 was 3.75 µM.

What about the TGI [36] of the same compound?
The TGI was 83.9 µM.

What about the CC50 [36, 40] of the same compound?
The CC50 was > 100 µM.

And the GI50 [37]?
The GI50 was 18.6 µM.

And the TGI [37]?
Its TGI is > 100 µM.

And the CC50 [37, 40]?
Its CC50 is > 100 µM.

And the GI50 [38]?
The GI50 was 1.69 µM.

What about the TGI [38] of the same compound?
The TGI was > 100 µM.

And the CC50 [38, 40]?
The CC50 was > 100 µM.

And the GI50 [39]?
The GI50 was 38.4 µM.

What about the TGI [39] of the same compound?
The TGI was > 100 µM.

What about the CC50 [39, 40] of the same compound?
The CC50 was > 100 µM.
